According to patent publication US20230069586A1, “METHODS OF USING ANDROGRAPHOLIDE, ORIDONIN AND ISOLIQUIRITIGENIN AND DERIVATIVES THEREOF” (THE REGENTS OF THE UNIVERSITY OF CALIFORNIA, priority 2020, published 2023):

Columns and labels:
[1] = system: DEFB103 (Human β-defensin 3) mRNA expression; test: DEFB103 (human β-defensin 3) mRNA expression in hTCEpi cells, quantitative PCR; format: cell-based; conditions: hTCEpi corneal epithelial cells, treated individually, 24 hours
Method: Telomerase immortalized human corneal epithelial cells (hTCEpi cells, passage 40-50) were grown in 6-well plates to 80-90% confluence. Cells were treated with andrographolide, oridonin, isoliquiritigenin (Selleck Chem) individually for 24 hours, at concentrations previously determined to have no effect on cellular viability based on cell morphology, MTT assay and RNA yield. Vehicle control type was based on manufacturers' diluent recommendation and concentration was equivalent to the diluent concentration in the highest treatment (andrographolide and oridonin: DMSO, isoliquiritigenin: ethanol). After 24 hours, media was aspirated from each well and washed with sterile PBS. Total RNA was extracted (GeneJet) and quantified (NanoDrop). Approximately 50 ng of total RNA from each sample was reverse transcribed and quantitative PCR was performed using […] for DEFB103 (ThermoFisher), and GAPDH specific aptamers were used as a control. Expression of DEFB103 was calculated using the 2^-ddCt method. A one-way ANOVA was performed to determine statistical significance with a post-hoc test to determine individual differences.
Separate time course experiments were performed as described above, where data points were taken at 2, 6, 12, and 24 hours.

[2] = system: human β-defensin 3 (hBD3) peptide; test: hBD3 peptide expression in hTCEpi cells, ELISA of supernatant; format: cell-based; conditions: increasing concentrations, 48 hours
Method: hTCEpi cells were seeded into a 6-well plate coated with FNC material and allowed to grow to 80% confluence. The cells were subsequently treated with increasing concentrations of andrographolide (10, 25, 50, 75, 100 μM), oridonin (1, 2, 5, 10, 15 μM), isoliquiritigenin (5, 10, 15, 25, 50 μM) for 48 hours, and a negative control (vehicle: DMSO or EtOH). After treatment, the supernatant was collected and 100 μl was used to quantify hBD3 peptide concentration (Defensin 3, beta (human) ELISA Kit, Phoenix Pharmaceuticals Inc) and performed in duplicate for each treatment. An hBD3 peptide standard curve was generated from the ELISA kit reagents. The concentration of each experimental well was determined from the linear regression equation generated from the absorbance values of the hBD3 standards. […] It is important to note that the majority of the AMP research fails to detect peptide concentrations from both in vitro and in vivo experiments despite observing upregulation at the mRNA level and the ability to augment antimicrobial activity of cells in either context.

oridonin was tested, and the “increase of human β-defensin 3 mRNA expression over vehicle control alone” value (shortened to “increase”) [1] was 4 fold and the hBD3 peptide expression [2] was “below the limit of detection”.

In the case of `C=C1CC[C@@H]2[C@](C)(CO)[C@H](O)CC[C@@]2(C)[C@@H]1C/C=C1/C(=O)OC[C@H]1O` [andrographolide], the “increase” value [1] was 360 fold and the hBD3 peptide expression [2] was “markedly upregulated in a dose-dependent manner”.

`O=C(/C=C/c1ccc(O)cc1)c1ccc(O)cc1O` [isoliquiritigenin] was tested, and the “increase” value [1] was 9-10 fold and the hBD3 peptide expression [2] was “below the limit of detection”.
